Experimental data published in US5376658A, “5,10-methylene-tetrahydrofolate as a modulator of a chemotherapeutic agent” (priority 1993, dated 1994).

What was measured:
CCRF-CEM cells = assay: Intracellular CH2 FH4 and FH4 levels in CCRF-CEM cells after exposure to 10 μM folate; type: cell-based, human; conditions: for Intracellular FH4: control 3.08
Excerpt: In further support of the hypothesis that objectives of CH2 FH4 administration are increases in FH4 and FH4 /CH2 FH4 values, are the results of a cell culture study, shown in Table VI, comparing the relative effectiveness of different folate forms on assayed intracellular levels of the two folates.

L. casei TS-[3H]FdUMP = target: T1, L. casei TS-[3H]FdUMP (Lacticaseibacillus casei, UniProt P00469); assay: TS-[3H]FdUMP-folate ternary complex binding assay
T1 sequence (P00469 1-316): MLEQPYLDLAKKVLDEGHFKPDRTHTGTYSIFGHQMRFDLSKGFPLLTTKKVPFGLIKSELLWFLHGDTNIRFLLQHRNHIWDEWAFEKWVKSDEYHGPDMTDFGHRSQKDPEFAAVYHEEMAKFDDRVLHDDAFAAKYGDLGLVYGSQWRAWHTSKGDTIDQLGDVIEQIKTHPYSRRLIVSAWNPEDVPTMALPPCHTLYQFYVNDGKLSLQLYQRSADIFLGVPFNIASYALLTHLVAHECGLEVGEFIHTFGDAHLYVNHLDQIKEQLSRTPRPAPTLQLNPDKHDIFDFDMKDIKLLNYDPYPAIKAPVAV
Description: The CH2 FH4 was prepared as the racemic (6R, S) material from (6R, S)-FH4 and excess formaldehyde, and DEAE-column isolation as described in FIG. 1. This preparation was essentially free of free formaldehyde based on colorimetric assay of bulk material (Nash, Biochem. J. 55:416-21 (1953)).
At all concentrations (total assays volume 150 μl ), excess formaldeyde was required to obtain maximal binding (which was still only 19.3% of stoichiometric binding). A notable effect was the increasing need for formaldehyde addition with increasing dilution, to obtain maximal CH2 FH4 assay recovery.
TS[^3 H]FdUMP-folate ternary complex formation without formaldehyde
addition was 38.5% of the value for the natural (6R)CH2 FH4 wit
6 mM formaldehyde added. (About 1 pmole of parent CH2 FH4 was
^b Only 11.8 ± 7.9% of maximal L. casei TS[^3 H]FdUMP-folate
ternary complex formation (using 6 mM formaldehyde concentration) which i
The unnatural diastereomer, (6S)-CH2 FH4 prepared by DEAE-column,potassium bicarbonate separation from the natural diasteromer as described in Example 8, was dissolved in 0.2M Tris-HCl buffer, pH 7.0, containing sodium ascorbate (100 mM) and 2-mercaptoethanol. This preparation was from the same lot of material described in Example 8. As noted in the footnote of Table VII, in the absence of supplemental formaldehyde, the yield of dextrancharcoal isolated complex was 38.5% of the value for the natural (6R)-CH2 FH4 (with added 6 mM formaldehyde).

[1] = test system: transplanted colon cancer; assay: Comparison of natural and unnatural CH2 FH4 diastereomers in rats bearing transplanted colon cancer; type: in vivo, rat; conditions: 15 mg/kg, Day 17, no fluorinated pyrimidine
Excerpt: A study has been completed, for comparison of natural (6R)-CH2 FH4 and unnatural (6S)-CH2 FH4 diastereomers. The preparation of the two forms was done as described by Kisliuk, et al., Cancer Treat. Rep. 61:647-50 (1977), using DEAE-cellulose column chromatography, with elution by potassium bicarbonate buffer. The two separate major peaks were individually pooled, lyophilized to dryness, and used for injection. As in the original detailed description of the method of Kisliuk, et al. (Biochem. 20:929-934), the methylene content was substoichiometric with tetrahydrofolate (FH4). That is, methylene units were present in apparently lower concentration than FH4 concentrations.
Rats bearing the transplanted colon cancer, as described in Example 4 and in Carlsson, et al., Anticancer. Res. 10:813-816, 1991, were treated with either the (6R)-CH2 FH4 or the (6S)-CH2 FH4, formulated and injected according to the methods described in Table IV, except that the injected amounts were 15 mg/kg per dose.
At Day 17, the rats were sacrificed, and the tumors were measured for both volume end weight. Volumes were calculated by the equation for an ellipsoid in revolution, V=(4/3)πab^2 were a=the long diameter/2 and b=the perpendicular short diameter/2.
The filled circles are the weights and volumes of tumors of rats treated with the unnatural (6S)-CH2 FH4 diastereomer (mostly (6R)-FH4 material in dilute solution and blood); the triangles are results for the natural (6R)-CH2 FH4 (mostly (6S)-FH4); and the open circles, control non-treated tumors. It is emphasized here that no fluorinated pyrimidine was used, just the folate injections.

[2] = test system: thymidylate synthase (TS); assay: TS level in serial tumor biopsies, patient three (skin metastasis from gastric carcinoma), [6-3H]FdUMP ligand-binding assay; type: in vivo, human; conditions: for TS, % of Baseline / Thymidylate synthase (TS): 30 mg IV; for Thymidylate synthase (TS): baseline 1.31
Description: The assays were performed by the methods described in Spears et al., Adv. […] The serial biopsies were done following single dose administration of CH2 FH4.
The assays were also performed on the day of CH2 FH4 administration.

[3] = test system: thymidylate synthase (TS); assay: TS level in serial tumor biopsies, patient one (rectal adenocarcinoma), [6-3H]FdUMP ligand-binding assay; type: in vivo, human
Description: CH2 FH4 was formulated, assayed, and administered to 2 patients who had previously been treated with 5-FU. The assays were performed by the methods described in Spears et al., Adv. Exp. Med. Biol. 244:98-104 (1988). In the data shown, the TS inhibition profiles that resulted from CH2 FH4 administration were not due to concurrent 5-FU dosing. The most recent exposure to 5-FU in these cases was slightly greater than a week prior to the study date, with the patients eligible, however, from the standpoint of toxicity evaluation to receive the weekly dose of 5-FU. Thus, residual FdUMP levels from previous exposure, below the detectable limits for assay, were expected to be present (See spears et al. Mol. Pharmacol. 27:302-07 (1985)). The serial biopsies were done following single dose administration of CH2 FH4.
The formulation of CH2 FH4 was as described in Example 2, and was performed on the day of CH2 FH4 administration. The assays were also performed on the day of CH2 FH4 administration.
^a On Week #1 the CH2 FH4 was formulated at pH 2.0,
DEAEpurified; On Week #2 the preparation was pH 9.0, with 6 mM (final
concentration) CH2 O added, no DEAE step used.
^c By [6^3 H]FdUMP ligandbinding assay (Spears et al., Cancer Res
In patient one, a person with locally unresectable advanced rectal adenocarcinoma, the TS pharmacodynamic tumor tissue analyses were done twice, nine days apart. Following study, the person continued to receive intermittent bolus 5-FU. […] There were modifications of the CH2 FH4 formulation between the 2 pharmacodynamic studies (See Table III). In the first study week, the pH was not adjusted up from 2.0, after DEAE column isolation of the Sigma (6R,S)-CH2 FH4. Thus, some of this folate may also have been 5,10-methenyl-tetrahydrofolate. In the second study week, the pH was adjusted up to 9.0, and no DEAE step was used (with therefore 6 mM formaldehyde being present in the 40-cc volume for injection).

[4] = cited from earlier work
[5] = test system: CH2 FH4 and FH4 in breast cancer biopsies; assay: CH2 FH4 and FH4 levels in breast cancer biopsies during L-serine infusion after high-dose (6R,S)-leucovorin; type: in vivo, human; set-up: CH2 FH4 / FH4: unit not given here; conditions: patient two
Description: As noted previously (see pages 5-6) and mentioned in C. P. Spears, et al., Proc. Am. Soc. Clin. Oncol. 8:69 (1989), the inventors have used pharmacologic intervention to convert intracellular FH4 to CH2 FH4 in patients receiving high-dose reduced folate therapy combined with weekly i.v. bolus 5-FU, 450 mg/sq. m. The method used was administration of i.v. L-serine, 15.0 grams, over 1 hour after the end of overnight high-dose (6R,S)-leucovorin i.v. infusion.
In contrast to the data shown in Tables II and III, the inventors were able to also assay for intratumoral FH4 in addition to CH2 FH4 (this latter is also referred to as "FBC" in those Tables or Folate-Binding Capacity), at time points during this pharmacologic forcing of metabolism of FH4 to CH2 FH4 through the enzyme, serine hydroxymethyltransferase. This enzyme splits a carbon of L-serine to generate formaldehyde in the presence of FH4.
^a Minutes after initiation of 15.0 gram LSerine i.v. 60min infusion,
after end of overnight (6R,S)leucovorin highdose i.v. infusion.
^b Assays performed as described (C.P. Spears et al., Adv. Exp. Med.

[6] = 0 min (start of L-serine, after overnight leucovorin)

For `Nc1nc2c(c(=O)[nH]1)N1CN(c3ccc(C(=O)N[C@@H](CCC(=O)O)C(=O)O)cc3)C[C@H]1CN2` [(6R)-CH2 FH4], the “Intracellular CH2 FH4” value (CCRF-CEM cells; 90 min exposure, control 0.04) was 0.19 nmole/10^9 Cells, the “Intracellular FH4” value (CCRF-CEM cells; 90 min exposure) was 8.81 nmole/10^9 Cells and the “% of maximal L. casei TS-[3H]FdUMP-folate ternary complex formation” value (L. casei TS-[3H]FdUMP; maximal = using 6 mM formaldehyde) was 11.8 ± 7.9%. The “Tumor volume ± SE” value ([1]; control 7.81) was 12.58 and the “Tumor weight ± SE” value ([1]; control 7.93) was 9.11.
With `CN1c2c(nc(N)[nH]c2=O)NC[C@H]1CNc1ccc(C(=O)N[C@@H](CCC(=O)O)C(=O)O)cc1` [(6R,S)-MTHF, 5-methyl-(6R, S)-tetrahydrofolate] the “Intracellular FH4” value (CCRF-CEM cells; 16-hr exposure) was 10.55 nmole/10^9 Cells.
In the case of `Nc1nc2c(c(=O)[nH]1)N(C=O)[C@@H](CNc1ccc(C(=O)N[C@@H](CCC(=O)O)C(=O)O)cc1)CN2` [(6S)-LV], the “Intracellular FH4” value (CCRF-CEM cells; 16-hr exposure) is reported as 10.64 nmole/10^9 Cells.
For `Nc1nc2c(c(=O)[nH]1)N1CN(c3ccc(C(=O)N[C@@H](CCC(=O)O)C(=O)O)cc3)CC1CN2` (stereo partly shown) [CH2 FH4, 5,10-methylene-tetrahydrofolate], the “TS, % of Baseline” value ([2]; 10 min) was 19.8%, the “TS, % of Baseline” value ([2]; 20 min) was 42.7% and the “TS, % of Baseline” value ([2]; 40 min) was 75.6%. The “TS, % of Baseline” value ([2]; 60 min) was 112.2%, the “Thymidylate synthase (TS)” value ([2]; biopsy at 10 min) was 0.26 pmol/g and the “Thymidylate synthase (TS)” value ([2]; biopsy at 20 min) was 0.56 pmol/g. For the same molecule, the “Thymidylate synthase (TS)” value ([2]; biopsy at 40 min) was 0.99 pmol/g, the “Thymidylate synthase (TS)” value ([2]; biopsy at 60 min) was 1.47 pmol/g and the “TS inhibition / decrease over baseline value” ([2]; 10 min (first biopsy)) was 80.2%. The TS inhibition ([2]; 20 min) was 57.3%, the “TS, % of Baseline” value ([3]; Week #1, 35 mg IV, 10 min) was 212.4% and the “Thymidylate synthase (TS)” value ([3]; Week #1, 35 mg IV, 10 min, baseline 5.77) was 6.28 pmol/g. For the same molecule, the “TS, % of Baseline” value ([3]; Week #1, 35 mg IV, 20 min) was 43.7%, the “Thymidylate synthase (TS)” value ([3]; Week #1, 35 mg IV, 20 min, baseline 5.77) was 2.26 pmol/g and the “TS, % of Baseline” value ([3]; Week #1, 35 mg IV, 30 min) was 114.1%. The “Thymidylate synthase (TS)” value ([3]; Week #1, 35 mg IV, 30 min, baseline 5.77) was 5.90 pmol/g, the “TS, % of Baseline” value ([3]; Week #1, 35 mg IV, 24 hr) was 122.2% and the “Thymidylate synthase (TS)” value ([3]; Week #1, 35 mg IV, 24 hr, baseline 5.77) was 6.32 pmol/g. For the same molecule, the “TS, % of Baseline” value ([3]; Week #2, 50 mg IV, 10 min) was 181.7%, the “Thymidylate synthase (TS)” value ([3]; Week #2, 50 mg IV, 10 min, baseline 5.64) was 10.25 pmol/g and the “TS, % of Baseline” value ([3]; Week #2, 50 mg IV, 20 min) was 104.8%. For the same molecule, the “Thymidylate synthase (TS)” value ([3]; Week #2, 50 mg IV, 20 min, baseline 5.64) was 5.91 pmol/g, the “TS, % of Baseline” value ([3]; Week #2, 50 mg IV, 30 min) was 35.8% and the “Thymidylate synthase (TS)” value ([3]; Week #2, 50 mg IV, 30 min, baseline 5.64) was 2.02 pmol/g. The “TS, % of Baseline” value ([3]; Week #2, 50 mg IV, 40 min) was 61.3%, the “Thymidylate synthase (TS)” value ([3]; Week #2, 50 mg IV, 40 min, baseline 5.64) was 3.46 pmol/g and the “maximal binding, % of stoichiometric binding” value (L. casei TS-[3H]FdUMP; 0.2M Tris pH 7.4, excess formaldehyde (6 mM)) was 19.3%. The “storage stability in solution” value ([4]; column-isolated, under argon at -80° C.) was “up to a year without decomposition” and the “stability in the presence of oxygen” value ([4]; solutions and powder, oxygen, catalyzed by light, acid, base, heavy metals) was “unstable”.
For `Nc1nc2c(c(=O)[nH]1)N=C(CNc1ccc(C(=O)N[C@@H](CCC(=O)O)C(=O)O)cc1)CN2` [DHF, Dihydrofolate], the “Intracellular FH4” value (CCRF-CEM cells; 16-hr exposure) was 7.10 nmole/10^9 Cells.
For `Nc1nc2c(c(=O)[nH]1)N(C=O)[C@H](CNc1ccc(C(=O)N[C@@H](CCC(=O)O)C(=O)O)cc1)CN2` [LV, (6R,S)-5-formyl-tetrahydrofolate], the “Ratio of FH4/CH2 FH4” value ([5]; 0 min) was 12.2, the “CH2 FH4” value [5, 6] was 0.194 and the FH4 [5, 6] was 2.370.
